The subject of data set [1] is Mus musculus. Kind of data set: Anticonvulsant activity in albino Mus musculus (mouse) assessed as protection against subcutaneous pentylenetetrazol-induced seizures at 100 mg/kg, ip after 4 hr relative to control. It is filed as functional, organism-based. Details: dose 100 mg/kg.
Data set [2] has as its system Mus musculus. The data set is described as follows: Neurotoxicity in albino Mus musculus (mouse) assessed as motor impairment at 100 mg/kg, ip after 0.5 hr relative to control. It is filed as toxicity, organism-based. Also on record: dose 100 mg/kg, route intraperitoneal. To be noted: in vivo.
In data set [3] the test system is Mus musculus. Kind of data set: Anticonvulsant activity in albino Mus musculus (mouse) assessed as protection against maximal electroshock-induced seizures at 300 mg/kg, ip after 4 hr relative to control. Details: dose 300 mg/kg. It counts as functional, organism-based. On the technique in general: In the maximal electroshock model the usual endpoint is tonic extension of the hind limbs.

The subject of data set [4] is Mus musculus. The data set is described as follows: Anticonvulsant activity in albino Mus musculus (mouse) assessed as protection against subcutaneous pentylenetetrazol-induced seizures at 30 mg/kg, ip after 0.5 hr relative to control. It counts as functional, organism-based. Also on record: dose 30 mg/kg.
Data set [5] relates to Mus musculus. Kind of data set: Neurotoxicity in albino Mus musculus (mouse) assessed as motor impairment at 300 mg/kg, ip after 0.5 hr relative to control. It is filed as toxicity, organism-based. Also on record: dose 300 mg/kg, route intraperitoneal. Conditions: in vivo.
In data set [6] the test system is Mus musculus. The data set is described as follows: Anticonvulsant activity in albino Mus musculus (mouse) assessed as protection against subcutaneous pentylenetetrazol-induced seizures at 300 mg/kg, ip after 0.5 hr relative to control. It counts as functional, organism-based. Details: dose 300 mg/kg.
Data set [7] has as its system Mus musculus. The data set is described as follows: Neurotoxicity in albino Mus musculus (mouse) assessed as motor impairment at 30 mg/kg, ip after 0.5 hr relative to control. It is filed as toxicity, organism-based. Details: dose 30 mg/kg, route intraperitoneal. To be noted: in vivo.
The subject of data set [8] is Mus musculus. The data set is described as follows: Anticonvulsant activity in albino Mus musculus (mouse) assessed as protection against maximal electroshock-induced seizures at 100 mg/kg, ip after 4 hr relative to control. It is filed as functional, organism-based. Also on record: dose 100 mg/kg.
Data set [9] in a line: Partition coefficient, log P of the compound. It is filed as physicochemical. To be noted: octanol/water.
Data set [10] has as its system Mus musculus. Kind of data set: Anticonvulsant activity in albino Mus musculus (mouse) assessed as protection against maximal electroshock-induced seizures at 30 mg/kg, ip after 4 hr relative to control. It counts as functional, organism-based. Details: dose 30 mg/kg.
Data set [11] deals with Mus musculus. The data set is described as follows: Anticonvulsant activity in albino Mus musculus (mouse) assessed as protection against maximal electroshock-induced seizures at 100 mg/kg, ip after 0.5 hr relative to control. It is filed as functional, organism-based. Details: dose 100 mg/kg.
For data set [12], the system named is Mus musculus. The data set is described as follows: Anticonvulsant activity in albino Mus musculus (mouse) assessed as protection against subcutaneous pentylenetetrazol-induced seizures at 300 mg/kg, ip after 4 hr relative to control. It is filed as functional, organism-based. Details: dose 300 mg/kg.
In data set [13] the test system is Mus musculus. The data set is described as follows: Anticonvulsant activity in albino Mus musculus (mouse) assessed as protection against maximal electroshock-induced seizures at 300 mg/kg, ip after 0.5 hr relative to control. It counts as functional, organism-based. Details: dose 300 mg/kg.
The test system of data set [14] is Mus musculus. The data set is described as follows: Neurotoxicity in albino Mus musculus (mouse) assessed as motor impairment at 300 mg/kg, ip after 4 hr relative to control. To be noted: in vivo. It counts as toxicity, organism-based. Details: dose 300 mg/kg, route intraperitoneal.
Data set [15] deals with Mus musculus. Kind of data set: Anticonvulsant activity in albino Mus musculus (mouse) assessed as protection against subcutaneous pentylenetetrazol-induced seizures at 30 mg/kg, ip after 4 hr relative to control. It counts as functional, organism-based. Also on record: dose 30 mg/kg.
For data set [16], the system named is Mus musculus. Kind of data set: Neurotoxicity in albino Mus musculus (mouse) assessed as motor impairment at 100 mg/kg, ip after 4 hr relative to control. It counts as toxicity, organism-based. Also on record: dose 100 mg/kg, route intraperitoneal. Conditions: in vivo.
The subject of data set [17] is Mus musculus. Kind of data set: Anticonvulsant activity in albino Mus musculus (mouse) assessed as protection against maximal electroshock-induced seizures at 30 mg/kg, ip after 0.5 hr relative to control. It is filed as functional, organism-based. Details: dose 30 mg/kg.
Data set [18] relates to Mus musculus. The data set is described as follows: Anticonvulsant activity in albino Mus musculus (mouse) assessed as protection against subcutaneous pentylenetetrazol-induced seizures at 100 mg/kg, ip after 0.5 hr relative to control. It is filed as functional, organism-based. Also on record: dose 100 mg/kg.
Data set [19] relates to Mus musculus. Kind of data set: Neurotoxicity in albino Mus musculus (mouse) assessed as motor impairment at 30 mg/kg, ip after 4 hr relative to control. It is filed as toxicity, organism-based. Also on record: dose 30 mg/kg, route intraperitoneal. Conditions: in vivo.

Molecules are shown by their SMILES. Active and inactive are the calls of the source. No cut-off for these calls is given here.

As usually defined, the logP is a log measure of how a compound divides between an organic and an aqueous phase.

With `CCNC(=S)N1N=C(c2ccccn2)CC1c1cccc2ccccc12` (centres undefined), the result with Mus musculus [1], in the data set with Mus musculus [4], with Mus musculus [8], with Mus musculus [10], in the data set on Mus musculus [15] and in the data set with Mus musculus [17] was inactive. The Activity entry in the data set with Mus musculus [2], with Mus musculus [5], in the data set with Mus musculus [7], with Mus musculus [14], in the data set on Mus musculus [16] and in the data set on Mus musculus [19] was “Non-toxic” in each case. Besides, the result in the data set on Mus musculus [3], in the data set on Mus musculus [6], in the data set with Mus musculus [11], in the data set on Mus musculus [12], in the data set on Mus musculus [13] and in the data set on Mus musculus [18] was Active. Further, the logP in [9] is 4.7.
Turning to `NC(=S)N1N=C(c2ccccn2)CC1c1ccc(Cl)cc1` (centres undefined), the outcome in the data set on Mus musculus [1], in the data set with Mus musculus [4], in the data set with Mus musculus [8], in the data set with Mus musculus [10], in the data set on Mus musculus [12] and in the data set with Mus musculus [15] was inactive. The result in the data set with Mus musculus [17] and with Mus musculus [18] was inactive. Moreover, the Activity result in the data set on Mus musculus [2], in the data set with Mus musculus [7], in the data set with Mus musculus [14], with Mus musculus [16] and in the data set with Mus musculus [19] was “Non-toxic” throughout. In addition, the outcome in the data set on Mus musculus [3], in the data set with Mus musculus [6], in the data set on Mus musculus [11] and in the data set on Mus musculus [13] was Active. For the same compound, the logP in data set [9] is 4.21.
For `NC(=S)N1N=C(c2ccccn2)CC1c1cccc2ccccc12` (centres undefined), the outcome in the data set with Mus musculus [1], in the data set on Mus musculus [4], with Mus musculus [10] and with Mus musculus [15] was inactive. The Activity result in the data set on Mus musculus [2], in the data set on Mus musculus [5], in the data set with Mus musculus [7], with Mus musculus [14], in the data set on Mus musculus [16] and in the data set on Mus musculus [19] was “Non-toxic” throughout. The result in the data set with Mus musculus [3], in the data set with Mus musculus [6], with Mus musculus [8], with Mus musculus [11], in the data set on Mus musculus [12] and in the data set on Mus musculus [13] was Active. Further, the result in the data set on Mus musculus [17] and in the data set on Mus musculus [18] was Active. The compound further showed a logP in [9] of 4.51.
With `NC(=S)N1N=C(c2ccccn2)CC1c1cccc(Cl)c1` (centres undefined), the result with Mus musculus [1], in the data set on Mus musculus [4], in the data set on Mus musculus [8], in the data set on Mus musculus [10], in the data set with Mus musculus [15] and with Mus musculus [18] was inactive. Besides, the Activity result in the data set on Mus musculus [2], with Mus musculus [7], with Mus musculus [14], in the data set with Mus musculus [16] and with Mus musculus [19] was “Non-toxic” throughout. Further, the result in the data set with Mus musculus [3], in the data set with Mus musculus [6], in the data set on Mus musculus [11], with Mus musculus [12], in the data set with Mus musculus [13] and in the data set with Mus musculus [17] was Active. Further, in [9], the logP turned out to be 4.15.
On to `CCNC(=S)N1N=C(c2ccccn2)CC1c1ccc(OC)cc1` (centres undefined), for which the result in the data set with Mus musculus [1], in the data set on Mus musculus [3], with Mus musculus [8], in the data set with Mus musculus [10], in the data set with Mus musculus [11] and in the data set on Mus musculus [13] was inactive. Also, the result in the data set on Mus musculus [15] and in the data set with Mus musculus [17] was inactive. The Activity entry in the data set on Mus musculus [2], with Mus musculus [5], in the data set with Mus musculus [7], in the data set with Mus musculus [14], in the data set with Mus musculus [16] and with Mus musculus [19] was “Non-toxic” each time. Moreover, the outcome in the data set on Mus musculus [4], in the data set with Mus musculus [6], in the data set with Mus musculus [12] and with Mus musculus [18] was Active. Moreover, the logP in data set [9] stood at 2.92.
With `CCNC(=S)N1N=C(c2ccccn2)CC1c1cccc(Cl)c1` (centres undefined), the outcome in the data set with Mus musculus [1], with Mus musculus [3], in the data set on Mus musculus [4], in the data set on Mus musculus [8], in the data set on Mus musculus [10] and with Mus musculus [12] was inactive. The outcome in the data set with Mus musculus [15], in the data set on Mus musculus [17] and in the data set with Mus musculus [18] was inactive. Also, the Activity result in the data set with Mus musculus [2], in the data set with Mus musculus [7], in the data set on Mus musculus [14], in the data set with Mus musculus [16] and in the data set on Mus musculus [19] was “Non-toxic” each time. The outcome in the data set with Mus musculus [6], with Mus musculus [11] and with Mus musculus [13] was Active. The compound further showed a logP in data set [9] of 3.2.
With `CCNC(=S)N1N=C(c2ccccn2)CC1c1ccc(OCc2ccccc2)cc1` (centres undefined), the outcome with Mus musculus [1], in the data set with Mus musculus [3], in the data set with Mus musculus [4], with Mus musculus [8], with Mus musculus [10] and in the data set with Mus musculus [12] was inactive. Moreover, the outcome in the data set with Mus musculus [15], in the data set with Mus musculus [17] and in the data set with Mus musculus [18] was inactive. Besides, the Activity entry in the data set with Mus musculus [2], with Mus musculus [7], in the data set with Mus musculus [14], in the data set on Mus musculus [16] and in the data set with Mus musculus [19] was “Non-toxic” in each case. The outcome with Mus musculus [6], in the data set on Mus musculus [11] and in the data set with Mus musculus [13] was Active. The compound also had a logP in [9] of 1.46.
With `CCNC(=S)N1N=C(c2ccccn2)CC1c1ccc(Cl)cc1` (centres undefined), the outcome in the data set with Mus musculus [1], in the data set with Mus musculus [3], with Mus musculus [4], in the data set with Mus musculus [8], with Mus musculus [10] and in the data set on Mus musculus [12] was inactive. In addition, the result in the data set with Mus musculus [15], in the data set on Mus musculus [17] and in the data set with Mus musculus [18] was inactive. Moreover, the Activity entry in the data set with Mus musculus [2], in the data set on Mus musculus [5], in the data set on Mus musculus [7], with Mus musculus [14], in the data set on Mus musculus [16] and in the data set on Mus musculus [19] was “Non-toxic” throughout. In addition, the result with Mus musculus [6], in the data set on Mus musculus [11] and with Mus musculus [13] was Active. This compound came in with a logP in data set [9] of 3.64.
On to `NC(=S)N1N=C(c2ccccn2)CC1c1ccc(OCc2ccccc2)cc1` (centres undefined), for which the result in the data set with Mus musculus [1], with Mus musculus [3], with Mus musculus [4], with Mus musculus [6], in the data set with Mus musculus [8] and in the data set with Mus musculus [10] was inactive. Moreover, the outcome in the data set on Mus musculus [11], in the data set with Mus musculus [12], in the data set on Mus musculus [13], with Mus musculus [15], in the data set with Mus musculus [17] and in the data set on Mus musculus [18] was inactive. Besides, the figures for the Activity result with Mus musculus [2], in the data set with Mus musculus [5] and in the data set on Mus musculus [19] were “Toxic”, “Toxic” and “Non-toxic”, respectively. This compound had a logP in data set [9] of 1.17.

The record behind these values is ChEMBL document CHEMBL3045568, “Novel 2-pyrazoline derivatives as potential anticonvulsant agents” (Med Chem Res, 2013).
